Assay results published in patent publication US20260374754A1, “N-((ISOQUINOLIN-6-YL)METHYL)-1H-PYRAZOLE-4-CARBOXAMIDE DERIVATIVES AS PLASMA KALLIKREIN INHIBITORS FOR THE TREATMENT OF HEREDITARY ANGIODEMA” (Takeda Pharmaceutical Company Limited, priority 2022, published 2026).
Where a name gives a salt, the structure may show the parent alone.

molecular target: human activated kallikrein enzyme (Homo sapiens, UniProt P03952); assay: Inhibition of human activated plasma kallikrein, fluorogenic PFR-AMC substrate, 500 pM enzyme format; format: biochemical; conditions: 500 pM activated kallikrein; 300 μM PFR-AMC; 30 min preincubation; 10 min room temperature; pH 7.5; read-out: Primary Dose Response Assay: Average EC50
How it was run: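 500 pM activated kallikrein preincubated 30 min at room temperature with inhibitors in pH 7.5 Tris/EDTA/NaCl buffer with PEG-400 and Triton X-100. Reaction started with 300 μM PFR-AMC, run 10 min at room temperature; AMC fluorescence read at ex 380/em 460 nm.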

human activated kallikrein enzyme, sequence (P03952 391-638 limits assumed): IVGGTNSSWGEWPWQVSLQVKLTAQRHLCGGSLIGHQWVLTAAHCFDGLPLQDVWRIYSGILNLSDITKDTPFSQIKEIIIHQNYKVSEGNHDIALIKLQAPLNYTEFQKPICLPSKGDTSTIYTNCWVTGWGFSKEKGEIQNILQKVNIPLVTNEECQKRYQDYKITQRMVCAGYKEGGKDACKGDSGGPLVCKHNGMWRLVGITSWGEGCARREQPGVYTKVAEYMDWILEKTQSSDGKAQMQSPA
human activated kallikrein enzyme, sequence (P03952 20-390 partner limits assumed): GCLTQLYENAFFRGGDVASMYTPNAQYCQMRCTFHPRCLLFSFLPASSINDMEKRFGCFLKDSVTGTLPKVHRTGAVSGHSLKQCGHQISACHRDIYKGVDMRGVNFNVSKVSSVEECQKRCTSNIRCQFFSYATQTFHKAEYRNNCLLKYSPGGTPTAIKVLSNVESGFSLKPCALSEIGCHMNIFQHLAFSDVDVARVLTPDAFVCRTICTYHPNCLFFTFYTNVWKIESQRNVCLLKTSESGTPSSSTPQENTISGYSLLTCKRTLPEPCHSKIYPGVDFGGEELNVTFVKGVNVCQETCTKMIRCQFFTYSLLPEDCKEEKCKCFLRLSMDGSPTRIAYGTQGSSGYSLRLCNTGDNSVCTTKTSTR

Row | EC50 | SMILES
1 | < 1 nM | Cc1cc2c(N)nccc2c(C)c1CNC(=O)c1cnn(Cc2ccc3ncccc3c2)c1 [Example 60, N-((1-amino-5,7-dimethylisoquinolin-6-yl)methyl)-1-(quinolin-6-ylmethyl)-1H-pyrazole-4-carboxamide]
2 | 1 to 10 nM | Cc1cc2c(N)nccc2c(C)c1CNc1cc(OCc2cc3cc(Cl)ccc3s2)cnn1 [Example 417, 6-(((5-((5-chlorobenzo[b]thiophen-2-yl)methoxy)pyridazin-3-yl)amino)methyl)-5,7-dimethylisoquinolin-1-amine, formic acid salt]
3 | 1 to 10 nM | Cc1ccc2ccc(Cn3cc(C(=O)NCc4c(C)cc5c(N)nccc5c4C)cn3)cc2c1 [Example 153, N-((1-amino-5,7-dimethylisoquinolin-6-yl)methyl)-1-((7-methylnaphthalen-2-yl)methyl)-1H-pyrazole-4-carboxamide]
4 | 1 to 10 nM | Cc1cc2c(N)nccc2c(C)c1CNc1cc(NCc2ccc3ncccc3c2)ncn1 [Example 337, N^4-((1-amino-5,7-dimethylisoquinolin-6-yl)methyl)-N^6-(quinolin-6-ylmethyl)pyrimidine-4,6-diamine]
5 | 10 to 100 nM | Cc1cc2c(N)nccc2c(C)c1CNc1cc(OCc2cn3ccccc3n2)cnn1 [Example 411, 6-(((5-(imidazo[1,2-a]pyridin-2-ylmethoxy)pyridazin-3-yl)amino)methyl)-5,7-dimethylisoquinolin-1-amine]
6 | < 1 nM | Cc1cc2c(N)nccc2c(C)c1CNC(=O)c1cnn(Cc2cn3c(C#N)cccc3n2)c1 [Example 143, N-((1-amino-5,7-dimethylisoquinolin-6-yl)methyl)-1-((5-cyanoimidazo[1,2-a]pyridin-2-yl)methyl)-1H-pyrazole-4-carboxamide]
7 | 100 to 1000 nM | Cc1cc2c(N)nccc2c(C)c1CNC(=O)c1cnn(Cc2ccccn2)c1 [Example 78, N-((1-amino-5,7-dimethylisoquinolin-6-yl)methyl)-1-(pyridin-2-ylmethyl)-1H-pyrazole-4-carboxamide]
8 | 100 to 1000 nM | Cc1cc2c(N)nccc2c(C)c1CNc1cc(OCc2cccc(-n3ccccc3=O)c2)ncn1 [Example 370, 1-(3-(((6-(((1-amino-5,7-dimethylisoquinolin-6-yl)methyl)amino)pyrimidin-4-yl)oxy)methyl)phenyl)pyridin-2(1H)-one]
9 | < 1 nM | Cc1cc2c(N)nccc2c(C)c1CNc1cc(OC(C)c2ccc(Cn3cccn3)cc2)cnn1 (stereo not drawn) [Example 275, 6-(((5-(1-(4-((1H-pyrazol-1-yl)methyl)phenyl)ethoxy)pyridazin-3-yl)amino)methyl)-5,7-dimethylisoquinolin-1-amine]
10 | < 1 nM | COc1cccc2nc(Cn3cc(C(=O)NCc4c(C)cc5c(N)nccc5c4C)cn3)cn12 [Example 144, N-((1-amino-5,7-dimethylisoquinolin-6-yl)methyl)-1-((5-methoxyimidazo[1,2-a]pyridin-2-yl)methyl)-1H-pyrazole-4-carboxamide]
11 | 1 to 10 nM | Cc1cc2c(N)nccc2c(C)c1CNc1cc(OCc2ccc3ncccc3c2)cnn1 [Example 409, 5,7-dimethyl-6-(((5-(quinolin-6-ylmethoxy)pyridazin-3-yl)amino)methyl)isoquinolin-1-amine]
12 | 1 to 10 nM | Cc1cc2c(N)nccc2c(C)c1CNc1cc(OCc2ccc(-n3ccnc3)cc2)cnn1 [Example 441, 6-(((5-((4-(1H-imidazol-1-yl)benzyl)oxy)pyridazin-3-yl)amino)methyl)-5,7-dimethylisoquinolin-1-amine]
13 | < 1 nM | Cc1cc2c(N)nccc2c(C)c1CNc1cc(OCc2cn3c(C)c(Cl)ccc3n2)ncn1 [Example 304, 6-(((6-((6-chloro-5-methylimidazo[1,2-a]pyridin-2-yl)methoxy)pyrimidin-4-yl)amino)methyl)-5,7-dimethylisoquinolin-1-amine]
14 | < 1 nM | COCc1nn(Cc2ccc(Cn3cccn3)cc2)cc1C(=O)NCc1c(C)cc2c(N)nccc2c1C [Example 187, 1-(4-((1H-pyrazol-1-yl)methyl)benzyl)-N-((1-amino-5,7-dimethylisoquinolin-6-yl)methyl)-3-(methoxymethyl)-1H-pyrazole-4-carboxamide]
15 | < 1 nM | Cc1cc2c(N)nccc2c(C)c1CNC(=O)c1cnn(Cc2ccc3ncc(C4CC4)cc3c2)c1 [Example 28, N-((1-amino-5,7-dimethylisoquinolin-6-yl)methyl)-1-((3-cyclopropylquinolin-6-yl)methyl)-1H-pyrazole-4-carboxamide]
16 | 1 to 10 nM | Cc1cc2c(N)nccc2c(C)c1CNC(=O)c1cnn(Cc2ccc(CCn3ccccc3=O)cc2)c1 [Example 49, N-((1-amino-5,7-dimethylisoquinolin-6-yl)methyl)-1-(4-(2-(2-oxopyridin-1(2H)-yl)ethyl)benzyl)-1H-pyrazole-4-carboxamide]
17 | < 1 nM | Cc1cc2nc(Cn3cc(C(=O)NCc4c(C)cc5c(N)nccc5c4C)cn3)cn2cc1Br [Example 135, N-((1-amino-5,7-dimethylisoquinolin-6-yl)methyl)-1-((6-bromo-7-methylimidazo[1,2-a]pyridin-2-yl)methyl)-1H-pyrazole-4-carboxamide]
18 | 10 to 100 nM | Cc1ccc2nc(Cn3cc(C(=O)N(C)Cc4c(C)cc5c(N)nccc5c4C)cn3)cn2c1 [Example 128, N-((1-amino-5,7-dimethylisoquinolin-6-yl)methyl)-N-methyl-1-((6-methylimidazo[1,2-a]pyridin-2-yl)methyl)-1H-pyrazole-4-carboxamide]
19 | < 1 nM | Cc1cc2c(N)nccc2c(C)c1CNC(=O)c1cnn(C(C)c2ccc3ncc(Cl)cc3c2)c1 (stereo not drawn) [Example 120, N-((1-amino-5,7-dimethylisoquinolin-6-yl)methyl)-1-(1-(3-chloroquinolin-6-yl)ethyl)-1H-pyrazole-4-carboxamide]
20 | < 1 nM | Cc1cc2c(N)nccc2c(C)c1CNC(=O)c1cnn(Cc2ccc(Cc3ccccn3)cc2)c1 [Example 165, N-((1-amino-5,7-dimethylisoquinolin-6-y1)methyl)-1-(4-(pyridin-2-ylmethyl)benzyl)-1H-pyrazole-4-carboxamide]
21 | 10 to 100 nM | Cc1c(CNC(=O)c2cnn(Cc3cn4cc(C5CC5)ccc4n3)c2)c(C)c2ccnc(N)c2c1C [Example 191, N-((1-amino-5,7,8-trimethylisoquinolin-6-yl)methyl)-1-((6-cyclopropylimidazo[1,2-a]pyridin-2-yl)methy1)-1H-pyrazole-4-carboxamide]
22 | 10 to 100 nM | Cc1cc2c(N)nccc2c(C)c1CNC(=O)c1cnn(Cc2ccc(-n3ccccc3=O)nc2)c1 [Example 46, N-((1-amino-5,7-dimethylisoquinolin-6-yl)methyl)-1-((2-oxo-2H-[1,2'-bipyridin]-5'-yl)methyl)-1H-pyrazole-4-carboxamide]
23 | 1 to 10 nM | Cc1cc2c(N)nccc2c(C)c1CNC(=O)c1cnn(Cc2ccc3cnn(C)c3c2)c1 [Example 59, N-((1-amino-5,7-dimethylisoquinolin-6-yl)methyl)-1-((1-methyl-1H-indazol-6-yl)methyl)-1H-pyrazole-4-carboxamide]

same assay, conditions: Primary Dose Response Assay: Average EC50, 500 pM activated kallikrein; 300 μM PFR-AMC; 30 min preincubation; 10 min room temperature; pH 7.5

Row | EC50 | SMILES
24 | > 1000 nM | Cc1c(CNC(=O)c2cnn(Cc3ccccc3)c2)c(C)c2ccnc(N)c2c1C [Example 170, N-((1-amino-5,7,8-trimethylisoquinolin-6-yl)methyl)-1-benzyl-1H-pyrazole-4-carboxamide]
